Results: US11945796B2, “Substituted pyridine derivatives as SARM1 inhibitors” (Nura Bio, Inc., priority 2020, dated 2024)

The compounds below were run against T1, human SARM1(50-724) (Homo sapiens, UniProt Q6SZW1) (assay: SARM1 NADase biochemical assay (HPLC peak areas of NAD and NAM)). Conditions: 50 μM compound; NAD peak area; read-out: Avg NAD % inhibition at 50 μM.
T1 construct: 40 nM human SARM1(50-724)
T1 sequence (Q6SZW1 50-724): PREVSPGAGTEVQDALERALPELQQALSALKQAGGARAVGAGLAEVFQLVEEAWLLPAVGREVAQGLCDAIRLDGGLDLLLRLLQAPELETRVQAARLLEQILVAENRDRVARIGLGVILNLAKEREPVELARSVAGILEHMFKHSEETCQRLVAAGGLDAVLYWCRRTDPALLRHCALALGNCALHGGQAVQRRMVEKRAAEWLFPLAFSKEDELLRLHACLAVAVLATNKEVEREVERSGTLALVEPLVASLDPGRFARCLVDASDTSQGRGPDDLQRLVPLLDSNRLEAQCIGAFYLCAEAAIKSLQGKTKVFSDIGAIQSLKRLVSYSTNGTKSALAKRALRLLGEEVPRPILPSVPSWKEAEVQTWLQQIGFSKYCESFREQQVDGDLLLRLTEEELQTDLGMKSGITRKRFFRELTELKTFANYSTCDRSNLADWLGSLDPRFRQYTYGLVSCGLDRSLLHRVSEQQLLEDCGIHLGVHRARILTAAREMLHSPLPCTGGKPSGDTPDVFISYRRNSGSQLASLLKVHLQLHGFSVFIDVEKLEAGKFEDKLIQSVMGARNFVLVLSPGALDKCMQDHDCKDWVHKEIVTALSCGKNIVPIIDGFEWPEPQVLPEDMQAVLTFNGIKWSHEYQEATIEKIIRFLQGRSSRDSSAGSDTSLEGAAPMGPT
Protocol: The reaction was incubated at room temperature for 60 minutes and quenched with 20 μL of 0.4% formic acid. […] Total run time for each sample was 4 minutes. […] Samples were run at a flow rate of 0.8 mL/min at 55° C. Peak areas of NAD and NAM were determined using OpenLAB CDS (Chem Station edition) software. For dose-response, the compound was diluted serially 1:3 in DMSO and added to the reaction starting at a final compound concentration of 100 μM in 1% DMSO.

Row | inhibition at 50 µM [%] | SMILES
1 | 0 to 50 | CC(c1ccncc1)n1ccc(C=O)n1 (racemic) [Example 108, (rac)-1-[1-(Pyridin-4-yl)ethyl]-1H-pyrazole-3-carbaldehyde]

Same assay, conditions: 50 μM compound; NAM peak area; read-out: Avg NAM % inhibition at 50 μM

Row | inhibition at 50 µM [%] | SMILES
2 | 0 to 50 | CC(c1ccncc1)n1ccc(C=O)n1 (racemic) [Example 108, (rac)-1-[1-(Pyridin-4-yl)ethyl]-1H-pyrazole-3-carbaldehyde]

Same assay, conditions: dose-response, 1:3 serial dilution from 100 μM; 40 nM SARM1, 0.3 mM NMN, 20 μM NAD, 60 min rt

Row | IC50 [µM] | SMILES
3 | < 1 | CC(c1ccncc1)n1ccc(Nc2nccs2)n1 (racemic) [Example 1, (rac)-N-(1-(1-(Pyridin-4-yl)ethyl)-1H-pyrazol-3-yl)thiazol-2-amine]
4 | 1 to 10 | CC(c1ccncc1)n1ccc(NCC#N)n1 (racemic) [Example 5, (rac)-2-((1-(1-(Pyridin-4-yl)ethyl)-1H-pyrazol-3-yl)amino)acetonitrile]
5 | 1 to 10 | CC(C)Cn1ccc(C(C)c2ccncc2)n1 (racemic) [Example 11, (rac)-4-(1-(1-Isobutyl-1H-pyrazol-3-yl)ethyl)pyridine]
6 | 1 to 10 | Cc1cnccc1C(C)n1ccc(NCC(F)(F)F)n1 (racemic) [Example 14, (rac)-1-(1-(3-Methylpyridin-4-yl)ethyl)-N-(2,2,2-trifluoroethyl)-1H-pyrazol-3-amine]
7 | 1 to 10 | CC(c1ccncc1)c1ccn(CC(F)F)n1 (racemic) [Example 18, (rac)-4-(1-(1-(2,2-Difluoroethyl)-1H-pyrazol-3-yl)ethyl)pyridine]
8 | 1 to 10 | CC(c1ccncc1)n1ccc(NC(=O)c2ccc3c(c2)OCO3)n1 (racemic) [Example 19, (rac)-N-(1-(1-(Pyridin-4-yl)ethyl)-1H-pyrazol-3-yl)benzo[d][1,3]dioxole-5-carboxamide]
9 | 1 to 10 | [2H]C([2H])([2H])C(c1ccncc1)c1ccn(CC(F)(F)F)n1 (racemic) [Example 21, (rac)-4-(1-(1-(2,2,2-Trifluoroethyl)-1H-pyrazol-3-yl)ethyl-2,2,2-d3)pyridine]
10 | 1 to 10 | CC(c1ccncc1)c1nn(CC(F)(F)F)cc1F (racemic) [Example 22, (rac)-4-(1-(4-Fluoro-1-(2,2,2-trifluoroethyl)-1H-pyrazol-3-yl)ethyl)pyridine]
11 | < 1 | CC(c1ccncc1)c1ccn(CC(F)(F)F)n1 (racemic) [Example 24, (rac)-4-(1-(1-(2,2,2-Trifluoroethyl)-1H-pyrazol-3-yl)ethyl)pyridine]
12 | 1 to 10 | [2H]C([2H])([2H])C(c1ccncc1)c1ccn(CC(F)F)n1 (racemic) [Example 25, (rac)-4-(1-(1-(2,2-Difluoroethyl)-1H-pyrazol-3-yl)ethyl-2,2,2-d3)pyridine]
13 | 10 to 100 | FC(c1ccncc1)c1ccn(CC(F)(F)F)n1 (racemic) [Example 79, (rac)-4-(Fluoro(1-(2,2,2-trifluoroethyl)-1H-pyrazol-3-yl)methyl)pyridine]
14 | < 1 | [2H]C([2H])([2H])C([2H])(c1ccncc1)c1ccn(CC(F)(F)F)n1 (racemic) [Example 80, (rac)-4-(1-(1-(2,2,2-Trifluoroethyl)-1H-pyrazol-3-yl)ethyl-1,2,2,2-d4)pyridine]
15 | 10 to 100 | FC(F)(F)Cn1ccc(C(Cl)c2ccncc2)n1 (racemic) [Example 81, (rac)-4-(Chloro(1-(2,2,2-trifluoroethyl)-1H-pyrazol-3-yl)methyl)pyridine]
16 | < 1 | [2H]C(C)(c1ccncc1)c1ccn(CC(F)(F)F)n1 (racemic) [Example 82, (rac)-4-(1-(1-(2,2,2-Trifluoroethyl)-1H-pyrazol-3-yl)ethyl-1-d)pyridine]
17 | 10 to 100 | CC(c1ccncc1)c1ccn(Cc2ccccc2)n1 (racemic) [Example 92, (rac)-4-(1-(1-Benzyl-1H-pyrazol-3-yl)ethyl)pyridine]
18 | 10 to 100 | CCC(c1ccncc1)n1ccc(NCC(F)(F)F)n1 (racemic) [Example 99, (rac)-1-(1-(Pyridin-4-yl)propyl)-N-(2,2,2-trifluoroethyl)-1H-pyrazol-3-amine]

Row | IC50 [µM] | SMILES
19 | 1 to 10 | CC(c1ccncc1)n1ccc(NC(C)C(F)(F)F)n1 (racemic) [Example 100, (rac)-1-(1-(Pyridin-4-yl)ethyl)-N-(1,1,1-trifluoropropan-2-yl)-1H-pyrazol-3-amine]
20 | < 1 | CC(c1ccncc1)n1ccc(NCC(F)F)n1 (racemic) [Example 101, (rac)-N-(2,2-Difluoroethyl)-1-(1-(pyridin-4-yl)ethyl)-1H-pyrazol-3-amine]
21 | 1 to 10 | Fc1cn(Cc2ccncc2)nc1CC(F)(F)F (racemic) [Example 104, 4-{[4-Fluoro-3-(2,2,2-trifluoroethyl)-1H-pyrazol-1-yl]methyl}pyridine]
22 | 1 to 10 | CC(c1ccncc1)n1ccc(CC(F)F)n1 (racemic) [Example 107, (rac)-4-{1-[3-(2,2-Difluoroethyl)-1H-pyrazol-1-yl]ethyl}pyridine]
23 | 1 to 10 | CC(c1ccn(CC(F)(F)F)n1)c1ccncc1Cl (racemic) [Example 112, (rac)-3-Chloro-4-(1-(1-(2,2,2-trifluoroethyl)-1H-pyrazol-3-yl)ethyl)pyridine]
24 | 1 to 10 | CC(c1ccncc1)c1ccn(CC#N)n1 (single isomer, unassigned) [Example 12a]
25 | < 1 | CC(c1ccncc1)c1ccn(CC#N)n1 (single isomer, unassigned) [Example 12b]
26 | 1 to 10 | C[C@H](c1ccn(CC(F)(F)F)n1)c1ccncc1Cl (single isomer, unassigned) [Example 113a]
27 | < 1 | C[C@@H](c1ccncc1)n1ccc(NCC(F)(F)F)n1 [Example 2, (S)-1-(1-(Pyridin-4-yl)ethyl)-N-(2,2,2-trifluoroethyl)-1H-pyrazol-3-amine]
28 | 1 to 10 | FC(F)CNc1ccn(Cc2ccncc2)n1 [Example 3, N-(2,2-Difluoroethyl)-1-(pyridin-4-ylmethyl)-1H-pyrazol-3-amine]
29 | 1 to 10 | c1cc(Cn2ccc(Nc3nccs3)n2)ccn1 [Example 4, N-(1-(Pyridin-4-ylmethyl)-1H-pyrazol-3-yl)thiazol-2-amine]
30 | 1 to 10 | N#CCn1ccc(Cc2ccncc2)n1 [Example 9, 2-(3-(Pyridin-4-ylmethyl)-1H-pyrazol-1-yl)acetonitrile]
31 | 1 to 10 | FC(F)Cn1ccc(Cc2ccncc2)n1 [Example 10, 4-((1-(2,2-Difluoroethyl)-1H-pyrazol-3-yl)methyl)pyridine]
32 | 1 to 10 | O=C(Nc1ccn(Cc2ccncc2)n1)C(C(F)(F)F)C(F)(F)F [Example 15, 3,3,3-trifluoro-N-(1-(pyridin-4-ylmethyl)-1H-pyrazol-3-yl)-2-(trifluoromethyl)propanamide]
33 | 1 to 10 | FC(F)(F)C(CNc1ccn(Cc2ccncc2)n1)C(F)(F)F [Example 16, 1-(Pyridin-4-ylmethyl)-N-(3,3,3-trifluoro-2-(trifluoromethyl)propyl)-1H-pyrazol-3-amine]
34 | 1 to 10 | N#CCNc1ccn(Cc2ccncc2)n1 [Example 17, 2-((1-(Pyridin-4-ylmethyl)-1H-pyrazol-3-yl)amino)acetonitrile]

Same assay, conditions: read-out: Avg NAD % inhibition at 50 μM

Row | SMILES | inhibition at 50 µM [%]
35 | CC(c1ccncc1)n1ccc(N(C)c2nccs2)n1 (racemic) [Example 91, (rac)-N-Methyl-N-(1-(1-(pyridin-4-yl)ethyl)-1H-pyrazol-3-yl)thiazol-2-amine] | 0 to 50
36 | FC(c1ccncc1)n1ccc(CC(F)(F)F)n1 (racemic) [Example 105, (rac)-4-{Fluoro[3-(2,2,2-trifluoroethyl)-1H-pyrazol-1-yl]methyl}pyridine] | 0 to 50

Same assay, conditions: read-out: Avg NAM % inhibition at 50 μM

Row | SMILES | inhibition at 50 µM [%]
37 | CC(c1ccncc1)n1ccc(N(C)c2nccs2)n1 (racemic) [Example 91, (rac)-N-Methyl-N-(1-(1-(pyridin-4-yl)ethyl)-1H-pyrazol-3-yl)thiazol-2-amine] | 0 to 50
38 | FC(c1ccncc1)n1ccc(CC(F)(F)F)n1 (racemic) [Example 105, (rac)-4-{Fluoro[3-(2,2,2-trifluoroethyl)-1H-pyrazol-1-yl]methyl}pyridine] | 0 to 50
